In US9861592B2, “Methods and compositions for treating neurodegenerative diseases” (Golden Biotechnology Corporation, priority 2012, dated 2018) one finds IC50 data, which are given here for one compound.

Each structure is given as a SMILES string. ≈ marks a conversion by molar mass, not a printed value.

In this assay the test system is PC12 cells. The assay is described as follows: CCK-8 cell viability assay, titration of Compound 1 in NGF-induced PC12 cells. Conditions: Rattus norvegicus, PC-12, 48 h. In kind it is cell-based. The method, then: Rat pheochromocytoma PC12 cells, purchased from Bioresource Collection and Research Center (BCRC), were cultured in RPMI1640 medium (Gibco, MD) containing 10% fetal calf serum, 5% horse donor serum, 100 μg/ml streptomycin, 100 units/ml penicillin, 2 mM L-glutamine, and maintained in humidified incubator at 37° C. with 5% CO2. Cells were transferred twice a week. Experiments were carried out in 96-well plates coated with poly-D-lysine (1 mg/mL) to assist cell adhesion. PC12 cells were grown on medium with mouse submaxillary-gland nerve growth factor (NGF 2.5S, 100 ng/ml; Invitrogen, Carlsbad, Calif.) for 48 h to induce differentiation into neuron-like cells before all experiments conducted in this study.
To optimize the exemplary Compound 1 concentration for NGF-induced PC12 neural model, titration experiments were performed to determine the IC50 values of Compound 1 in PC12. PC12 Cells (1×10^4 cells) were incubated with various concentrations of Compound 1 (0.001, 0.01, 0.1, 1, 10, 100 μg/ml in a 10% serum-supplemented medium; 0.3, 1, 3, 10, 30, 100 μg/ml in serum-free medium) for 48 h.
The viability of cells was measured using the Cell Counting Kit-8 (CCK-8, Enzo, Life Sciences). A highly water-soluble tetrazolium salt, WST-8, is reduced by dehydrogenases in cells to give a yellow-colored product (formazan), which is soluble in the culture medium. The amount of the fomazan dye generated by the activity of dehydrogenases in cells is directly proportional to the number of living cells. After treatments, the CCK-8 solution was added to each well of plates and incubates the plate for 4 h in the incubator. The concentration of the formazan product was determined spectrophotometrically at an absorbance wavelength 450 nm and cell viability was expressed as a percentage of the corresponding control.
For orientation: Tetrazolium assays rely on reduction of a dye to a coloured formazan, in cell work by metabolically active cells.

As for `COC1=C(OC)C(O)C(C/C=C(\C)CC/C=C(\C)CCC=C(C)C)C(C)C1=O` (stereo not drawn) [Compound 1, 4-hydroxy-2,3-dimethoxy-6-methyl-5-(3,7,11-trimethyldodeca-2,6,10-trienyl)cyclohex-2-enone], the IC50 (as a rule, the point on the concentration scale where inhibition reaches its midpoint) (PC12, 10% serum supplemented media, unit as printed in b23) amounted to 58 µg/mL (≈ 148 µM); the IC50 (PC12, 10% serum supplemented media, unit as printed in b151) was determined as 58 µg/mL (≈ 148 µM); the half-maximal inhibitory concentration (IC50) (PC12, serum-free media) amounted to 13.4 µg/mL (≈ 34.3 µM).
